Results taken from the supplement of paper PMC10307832.

How the values were obtained:
Assay in all cases: relative viability (nuclei count vs DMSO), 5 days (fraction); higher = more cells survive
Pazopanib + Navitoclax = compound: Cc1ccc(Nc2nccc(N(C)c3ccc4c(C)n(C)nc4c3)n2)cc1S(N)(=O)=O [Pazopanib] + CC1(C)CCC(c2ccc(Cl)cc2)=C(CN2CCN(c3ccc(C(=O)NS(=O)(=O)c4ccc(N[C@H](CCN5CCOCC5)CSc5ccccc5)c(S(=O)(=O)C(F)(F)F)c4)cc3)CC2)C1 [Navitoclax] (partner 0.5 µM)
Procedure, shortened: (§1)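 Values are medians from duplicate plates. Each reflects relative viability, defined as the nuclei count of treated wells over that of vehicle wells. Lung cancer cell lines in 1536-well plates were pin-tool dosed one day after seeding with one drug alone or with a fixed anchor-drug dose plus five library-drug doses (not always all listed) in √10 steps, then fixed, stained and imaged at 4× after 5 days.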

Pazopanib + Luminespib = compound: Cc1ccc(Nc2nccc(N(C)c3ccc4c(C)n(C)nc4c3)n2)cc1S(N)(=O)=O [Pazopanib] + CCNC(=O)c1noc(-c2cc(C(C)C)c(O)cc2O)c1-c1ccc(CN2CCOCC2)cc1 [Luminespib] (partner 0.01 µM)
Procedure, shortened: as §1

Pazopanib + Dasatinib = compound: Cc1ccc(Nc2nccc(N(C)c3ccc4c(C)n(C)nc4c3)n2)cc1S(N)(=O)=O [Pazopanib] + Cc1nc(Nc2ncc(C(=O)Nc3c(C)cccc3Cl)s2)cc(N2CCN(CCO)CC2)n1 [Dasatinib] (partner 0.075 µM)
Procedure, shortened: as §1

Pazopanib + AZD7762 = compound: Cc1ccc(Nc2nccc(N(C)c3ccc4c(C)n(C)nc4c3)n2)cc1S(N)(=O)=O [Pazopanib] + NC(=O)Nc1cc(-c2cccc(F)c2)sc1C(=O)N[C@H]1CCCNC1 [AZD7762] (partner 0.2 µM)
Procedure, shortened: as §1

Cell Line	relative viability (Pazopanib + Navitoclax; first compound 0.01 µM)	relative viability (Pazopanib + Navitoclax; first compound 0.03162 µM)	relative viability (Pazopanib + Navitoclax; first compound 0.1 µM)	relative viability (Pazopanib + Navitoclax; first compound 0.3162 µM)	relative viability (Pazopanib + Navitoclax; first compound 1 µM)	relative viability (Pazopanib + Luminespib; first compound 0.01 µM)	relative viability (Pazopanib + Luminespib; first compound 0.03162 µM)	relative viability (Pazopanib + Luminespib; first compound 0.1 µM)	relative viability (Pazopanib + Luminespib; first compound 0.3162 µM)	relative viability (Pazopanib + Luminespib; first compound 1 µM)	relative viability (Pazopanib + Dasatinib; first compound 0.01 µM)	relative viability (Pazopanib + Dasatinib; first compound 0.03162 µM)	relative viability (Pazopanib + Dasatinib; first compound 0.1 µM)	relative viability (Pazopanib + Dasatinib; first compound 0.3162 µM)	relative viability (Pazopanib + Dasatinib; first compound 1 µM)	relative viability (Pazopanib + AZD7762; first compound 0.01 µM)	relative viability (Pazopanib + AZD7762; first compound 0.03162 µM)	relative viability (Pazopanib + AZD7762; first compound 0.1 µM)	relative viability (Pazopanib + AZD7762; first compound 0.3162 µM)	relative viability (Pazopanib + AZD7762; first compound 1 µM)
201T	1.21	1.22	1.26	1.18	1.17	0.996	1.1	1.07	1.06	1.08	0.526	0.424	0.568	0.545	0.666	0.534	0.511	0.667	0.685	0.615
A-427	1.03	1.07	0.977	0.941	1.04	1.08	1.18	0.786	1.02	1.19	0.652	0.72	0.614	0.694	0.701	0.864	0.786	0.825	0.784	0.716
BEN	0.0655	0.0679	0.0737	0.0724	0.0586	–	0.328	0.246	0.364	0.352	–	0.343	0.267	0.318	0.38	0.592	0.75	0.607	0.775	0.786
CAL-12T	1.26	1.15	1.25	1.27	1.34	0.434	0.321	0.974	0.426	0.783	0.308	0.412	0.312	0.458	0.462	0.594	0.579	0.527	0.568	0.652
ChaGo-K-1	0.935	1.07	0.997	0.792	1.06	0.632	0.595	0.586	0.492	0.574	0.554	0.622	0.591	0.515	0.7	0.859	0.859	0.971	0.82	0.865
EKVX	0.834	0.926	0.97	0.921	1.02	0.987	0.763	0.728	0.873	0.857	0.63	0.53	0.54	0.592	0.601	0.705	0.599	0.755	0.654	0.636
EMC-BAC-2	1.04	1.21	1.15	1.15	1.15	–	1.2	1.16	1.14	1.25	–	0.381	0.308	0.305	0.312	–	1.14	1.09	1.14	1.2
EPLC-272H	1.09	1.09	1.21	1.16	1.1	–	0.281	0.366	0.344	0.52	–	0.321	0.369	0.376	0.251	–	0.227	0.238	0.132	0.217
H3255	0.488	0.523	0.548	0.536	0.572	0.854	0.883	0.869	0.8	0.982	0.349	0.397	0.295	0.286	0.454	0.897	0.906	0.847	0.883	0.913
HARA	1.2	1.03	1.13	1.15	1.2	0.548	0.704	1.09	0.76	0.839	0.23	0.341	0.241	0.248	0.337	0.428	0.303	0.255	0.35	0.349
HCC-15	0.698	0.706	0.743	0.713	0.815	0.146	0.242	0.366	0.2	0.498	0.543	0.631	0.612	0.67	0.692	1.3	1.15	1.31	1.22	1.15
HCC-44	0.87	0.896	1	0.82	0.984	1.11	1.07	1.07	1.04	1.12	–	–	–	–	–	1.07	0.979	0.979	1.01	0.982
HCC-78	0.493	0.813	0.796	0.828	0.694	–	–	–	–	–	0.328	0.383	0.362	0.429	0.339	–	0.654	0.615	0.658	0.604
HCC-366	1.02	1.11	1.14	0.984	1.19	–	–	–	–	–	0.421	0.655	0.762	0.676	0.733	0.321	0.202	0.314	0.276	0.238
HCC-827	1.06	1.02	1.11	1.07	0.98	0.369	0.778	0.747	0.603	0.46	0.286	0.27	0.284	0.399	0.324	0.244	0.201	0.217	0.231	0.213
HOP-62	1.13	1.08	1.01	1.03	0.944	0.79	0.89	0.915	0.953	0.981	0.554	0.713	0.681	0.659	0.718	0.739	0.589	0.527	0.528	0.478
LC-2-ad	0.411	0.48	0.588	0.485	0.335	0.992	1.06	1.02	1.03	1.23	0.445	0.555	0.575	0.792	0.535	0.834	0.835	0.906	0.92	0.85
